Organism: Rattus norvegicus
Assay: Open TG-GATES - Regimen: Daily Repeat
Type: toxicity, organism-based, Sprague-Dawley
Set-up: regimen Daily Repeat, gender Male, age 6 weeks
Conditions: in vivo, po, 1000 mg/kg, route gavage, dose level High; for APTT / Bas / Eos / Fbg / Hb / Ht / Lym / MCH / MCHC / MCV / Mono / Neu / PT / Plat / RBC / Ret / WBC: tissue Blood; for KIDNEY_L / KIDNEY_R / KIDNEY_TOTAL: tissue Kidney; for LIVER: tissue Liver; for A/G / ALP / ALT / AST / BUN / CRE / Ca / Cl / DBIL / GLC / IP / K / LDH / Na / PL / RALB / TBIL / TC / TG / TP / gamma-GTP: tissue Plasma

Compound `CNC(=C[N+](=O)[O-])NCCSCc1ccc(CN(C)C)o1` [RANITIDINE] has a TERMINAL_BW (72 h, time 3 day) of 237.1 g, an APTT (72 h, time 3 day) of 20.1 s and a Bas (72 h, time 3 day) of 0%. The Eos (72 h, time 3 day) was 1%, the Fbg (72 h, time 3 day) was 231.6 mg/dL and the Hb (72 h, time 3 day) was 13.6 g/dL. It also gave a Ht (72 h, time 3 day) of 39.8%, a Lym (72 h, time 3 day) of 78.4% and an MCH (72 h, time 3 day) of 21.5 pg. For the same compound, the MCHC (72 h, time 3 day) was 34.1%, the MCV (72 h, time 3 day) was 63.1 fL and the Mono (72 h, time 3 day) was 3%. The Neu (72 h, time 3 day) was 16%, the PT (72 h, time 3 day) was 12 s and the Plat (72 h, time 3 day) was 117.3 x10_4/uL. For the same compound, the RBC (72 h, time 3 day) was 631.4 x10_4/ul, the Ret (72 h, time 3 day) was 4.8% and the WBC (72 h, time 3 day) was 85 x10_2/uL. The KIDNEY_L (72 h, time 3 day) was 1 g, the KIDNEY_R (72 h, time 3 day) was 1 g and the KIDNEY_TOTAL (72 h, time 3 day) was 2 g. For the same compound, the LIVER (72 h, time 3 day) was 12 g, the A/G (72 h, time 3 day) was 1.6 and the ALP (72 h, time 3 day) was 907.8 IU/L. It also gave an ALT (72 h, time 3 day) of 41.2 IU/L, an AST (72 h, time 3 day) of 69.4 IU/L and a BUN (72 h, time 3 day) of 14.8 mg/dL. For the same compound, the CRE (72 h, time 3 day) was 0.4 mg/dL, the Ca (72 h, time 3 day) was 11 mg/dL and the Cl (72 h, time 3 day) was 103.6 meq/L. It also gave a DBIL (72 h, time 3 day) of 0.098 mg/dL, a GLC (72 h, time 3 day) of 198.4 mg/dL and an IP (72 h, time 3 day) of 8 mg/dL. It also gave a K (72 h, time 3 day) of 4 meq/L, an LDH (72 h, time 3 day) of 216.6 IU/L and a Na (72 h, time 3 day) of 140.6 meq/L. For the same compound, the PL (72 h, time 3 day) was 148.4 mg/dL, the RALB (72 h, time 3 day) was 3.4 g/dL and the TBIL (72 h, time 3 day) was 0.2 mg/dL. The TC (72 h, time 3 day) was 80 mg/dL, the TG (72 h, time 3 day) was 107.4 mg/dL and the TP (72 h, time 3 day) was 5.6 g/dL. The gamma-GTP (72 h, time 3 day) was 1.4 IU/L, the TERMINAL_BW ([…], time 7 day) was 264.9 g and the TERMINAL_BW ([…], time 14 day) was 314.9 g. For the same compound, the TERMINAL_BW ([…], time 28 day) was 379.9 g, the APTT ([…], time 7 day) was 19.6 s and the Bas ([…], time 7 day) was 0%. The Eos ([…], time 7 day) was 0.8%, the Fbg ([…], time 7 day) was 216.8 mg/dL and the Hb ([…], time 7 day) was 13.9 g/dL. The Ht ([…], time 7 day) was 39.1%, the Lym ([…], time 7 day) was 82.2% and the MCH ([…], time 7 day) was 21.7 pg. It also gave an MCHC ([…], time 7 day) of 35.5%, an MCV ([…], time 7 day) of 61.2 fL and a Mono ([…], time 7 day) of 1.6%. The Neu ([…], time 7 day) was 12.8%, the PT ([…], time 7 day) was 12.5 s and the Plat ([…], time 7 day) was 121.8 x10_4/uL. It also gave an RBC ([…], time 7 day) of 639.4 x10_4/ul, a Ret ([…], time 7 day) of 5% and a WBC ([…], time 7 day) of 99 x10_2/uL. It also gave an APTT ([…], time 14 day) of 18.9 s, a Bas ([…], time 14 day) of 0% and an Eos ([…], time 14 day) of 1%. The Fbg ([…], time 14 day) was 234.2 mg/dL, the Hb ([…], time 14 day) was 14.5 g/dL and the Ht ([…], time 14 day) was 40.3%. It also gave a Lym ([…], time 14 day) of 77.8%, an MCH ([…], time 14 day) of 21.2 pg and an MCHC ([…], time 14 day) of 36.1%. It also gave an MCV ([…], time 14 day) of 58.7 fL, a Mono ([…], time 14 day) of 2.4% and a Neu ([…], time 14 day) of 18%. It also gave a PT ([…], time 14 day) of 12.1 s, a Plat ([…], time 14 day) of 118.7 x10_4/uL and an RBC ([…], time 14 day) of 686 x10_4/ul. It also gave a Ret ([…], time 14 day) of 4.3%, a WBC ([…], time 14 day) of 87.7 x10_2/uL and an APTT ([…], time 28 day) of 19.8 s. The Bas ([…], time 28 day) was 0%, the Eos ([…], time 28 day) was 1.2% and the Fbg ([…], time 28 day) was 234.2 mg/dL. It also gave a Hb ([…], time 28 day) of 15.5 g/dL, a Ht ([…], time 28 day) of 43.3% and a Lym ([…], time 28 day) of 77.2%. For the same compound, the MCH ([…], time 28 day) was 20.1 pg, the MCHC ([…], time 28 day) was 35.9% and the MCV ([…], time 28 day) was 56.2 fL. For the same compound, the Mono ([…], time 28 day) was 1.8%, the Neu ([…], time 28 day) was 18.6% and the PT ([…], time 28 day) was 12.2 s. The Plat ([…], time 28 day) was 113 x10_4/uL, the RBC ([…], time 28 day) was 769.8 x10_4/ul and the Ret ([…], time 28 day) was 2.2%. For the same compound, the WBC ([…], time 28 day) was 104.7 x10_2/uL, the KIDNEY_L ([…], time 7 day) was 1.1 g and the KIDNEY_R ([…], time 7 day) was 1.2 g. It also gave a KIDNEY_TOTAL ([…], time 7 day) of 2.3 g, a KIDNEY_L ([…], time 14 day) of 1.2 g and a KIDNEY_R ([…], time 14 day) of 1.2 g. The KIDNEY_TOTAL ([…], time 14 day) was 2.4 g, the KIDNEY_L ([…], time 28 day) was 1.4 g and the KIDNEY_R ([…], time 28 day) was 1.4 g. It also gave a KIDNEY_TOTAL ([…], time 28 day) of 2.8 g, an LIVER ([…], time 7 day) of 12.3 g and an LIVER ([…], time 14 day) of 14.2 g. It also gave an LIVER ([…], time 28 day) of 15.4 g, an A/G ([…], time 7 day) of 1.5 and an ALP ([…], time 7 day) of 852.4 IU/L. It also gave an ALT ([…], time 7 day) of 37.2 IU/L, an AST ([…], time 7 day) of 65.4 IU/L and a BUN ([…], time 7 day) of 16.8 mg/dL. The CRE ([…], time 7 day) was 0.4 mg/dL, the Ca ([…], time 7 day) was 10.7 mg/dL and the Cl ([…], time 7 day) was 103.6 meq/L. The DBIL ([…], time 7 day) was 0.088 mg/dL, the GLC ([…], time 7 day) was 224.4 mg/dL and the IP ([…], time 7 day) was 7.8 mg/dL. It also gave a K ([…], time 7 day) of 3.7 meq/L, an LDH ([…], time 7 day) of 169.6 IU/L and a Na ([…], time 7 day) of 140.6 meq/L. The PL ([…], time 7 day) was 137.2 mg/dL, the RALB ([…], time 7 day) was 3.3 g/dL and the TBIL ([…], time 7 day) was 0.1 mg/dL. For the same compound, the TC ([…], time 7 day) was 76.8 mg/dL, the TG ([…], time 7 day) was 82.4 mg/dL and the TP ([…], time 7 day) was 5.5 g/dL. The gamma-GTP ([…], time 7 day) was 0.8 IU/L, the A/G ([…], time 14 day) was 1.4 and the ALP ([…], time 14 day) was 785 IU/L. For the same compound, the ALT ([…], time 14 day) was 37.2 IU/L, the AST ([…], time 14 day) was 62.8 IU/L and the BUN ([…], time 14 day) was 17.6 mg/dL. It also gave a CRE ([…], time 14 day) of 0.5 mg/dL, a Ca ([…], time 14 day) of 10.5 mg/dL and a Cl ([…], time 14 day) of 103 meq/L. The DBIL ([…], time 14 day) was 0.08 mg/dL, the GLC ([…], time 14 day) was 193 mg/dL and the IP ([…], time 14 day) was 7.4 mg/dL. For the same compound, the K ([…], time 14 day) was 4.2 meq/L, the LDH ([…], time 14 day) was 205.8 IU/L and the Na ([…], time 14 day) was 141.8 meq/L. For the same compound, the PL ([…], time 14 day) was 137.8 mg/dL, the RALB ([…], time 14 day) was 3.5 g/dL and the TBIL ([…], time 14 day) was 0.1 mg/dL. For the same compound, the TC ([…], time 14 day) was 66.4 mg/dL, the TG ([…], time 14 day) was 104 mg/dL and the TP ([…], time 14 day) was 5.8 g/dL. For the same compound, the gamma-GTP ([…], time 14 day) was 1.2 IU/L, the A/G ([…], time 28 day) was 1.3 and the ALP ([…], time 28 day) was 562.8 IU/L. The ALT ([…], time 28 day) was 38.8 IU/L, the AST ([…], time 28 day) was 61 IU/L and the BUN ([…], time 28 day) was 17.2 mg/dL. It also gave a CRE ([…], time 28 day) of 0.5 mg/dL, a Ca ([…], time 28 day) of 10.5 mg/dL and a Cl ([…], time 28 day) of 102.2 meq/L. For the same compound, the DBIL ([…], time 28 day) was 0.094 mg/dL, the GLC ([…], time 28 day) was 198.6 mg/dL and the IP ([…], time 28 day) was 7.2 mg/dL. It also gave a K ([…], time 28 day) of 3.8 meq/L, an LDH ([…], time 28 day) of 114.2 IU/L and a Na ([…], time 28 day) of 141.6 meq/L. The PL ([…], time 28 day) was 142.6 mg/dL, the RALB ([…], time 28 day) was 3.5 g/dL and the TBIL ([…], time 28 day) was 0.2 mg/dL. For the same compound, the TC ([…], time 28 day) was 70.4 mg/dL, the TG ([…], time 28 day) was 96 mg/dL and the TP ([…], time 28 day) was 6.1 g/dL. The gamma-GTP ([…], time 28 day) was 0.8 IU/L.

Source: ChEMBL document CHEMBL3885861, “Open TG-GATES”
